According to US20250127801A1, “BRIDGED TRICYCLIC CARBAMOYLPYRIDONE COMPOUNDS AND USES THEREOF” (priority 2023, published 2025):
≈ marks a conversion by molar mass, not a printed value. Like-named read-outs stand apart in the source and are kept apart here.

Key:
physchem = settings: 23 °C, thermodynamic from solid; for solubility thermodynamic: fassif; for solubility thermodynamic at 24 h: FaSSIF
HIV-1 (IIIB) = experiment: microbe, parasite or virus in culture; type: cell-based
in vitro = settings: human; for CC50 at 5 days: uninfected MT-4 cells
[1] = Human immunodeficiency virus 1, IIIB, MT4, 120 h, read-out: MT4 EC50 (nM)
[2] = Human immunodeficiency virus 1, MT4, 120 h, HIV-1 (IIIB) replication in MT-4 cells, 5 days incubation, Cell Titer Glo, read-out: MT4 EC50

Compound | solubility thermodynamic (physchem) [µg/mL] | EC50 (HIV-1 (IIIB); [1]) [nM] | CC50 (in vitro) [nM] | solubility thermodynamic at 24 h (physchem) [µg/mL] | EC50 (HIV-1 (IIIB); [2]) [nM] | CC50 at 5 days (in vitro) [nM]
CC1=NO[C@@]2(CC[C@H](C)N3C[C@H]2n2cc(C(=O)NCc4ccc(F)cc4F)c(=O)c(OC(=O)N(C)c4ncccc4CN(C)C(=O)OCOP(=O)(O)O)c2C3=O)C1 [Compound 61, (phosphonooxy)methyl ((2-(((((3′S,5S,7′R)-10′-((2,4-difluorobenzyl)carbamoyl)-3,3′-dimethyl-1′,11′-dioxo-1′,4′,5′,11′-tetrahydro-3′H,4H,7′H-spiro[isoxazole-5,6′-[2,7]methanopyrido[1,2-a][1,4]diazonin]-12′-yl)oxy)carbonyl)(methyl)amino)pyridin-3-yl)methyl)(methyl)carbamate] | 4140 (≈ 5.07 mM) | 1.39 | 15200 | – | – | –
COC(=O)CN(Cc1cccnc1N(C)C(=O)Oc1c2n(cc(C(=O)NCc3ccc(F)cc3F)c1=O)[C@@H]1CN(C2=O)[C@@H](C)CC[C@]12CC(C)=NO2)C(=O)OCOP(=O)(O)O [Compound 34, methyl N-((2-(((((3′S,5S,7′R)-10′-((2,4-difluorobenzyl)carbamoyl)-3,3′-dimethyl-1′,11′-dioxo-1′,4′,5′,11′-tetrahydro-3′H,4H,7′H-spiro[isoxazole-5,6′-[2,7]methanopyrido[1,2-a][1,4]diazonin]-12′-yl)oxy)carbonyl)(methyl)amino)pyridin-3-yl)methyl)-N-(((phosphonooxy)methoxy)carbonyl)glycinate] | 4920 (≈ 5.62 mM) | 1.4 | 12800 | – | – | –
CC1=NO[C@@]2(CC[C@H](C)N3C[C@H]2n2cc(C(=O)NCc4ccc(F)cc4F)c(=O)c(OCOC(=O)O[C@H]4CCCC[C@H]4OP(=O)(O)O)c2C3=O)C1 [Compound 51, (((3′S,5S,7′R)-10′-((2,4-difluorobenzyl)carbamoyl)-3,3′-dimethyl-1′,11′-dioxo-1′,4′,5′,11′-tetrahydro-3′H,4H,7′H-spiro[isoxazole-5,6′-[2,7]methanopyrido[1,2-a][1,4]diazonin]-12′-yl)oxy)methyl ((1S,2R)-2-(phosphonooxy)cyclohexyl) carbonate] | – | – | – | 4400 (≈ 5.95 mM) | 2 | 21200
CC1=NO[C@@]2(CC[C@H](C)N3C[C@H]2n2cc(C(=O)NCc4ccc(F)cc4F)c(=O)c(OCOC(=O)O[C@@H]4CCCC[C@H]4OP(=O)(O)O)c2C3=O)C1 [Compound 45, (((3′S,5S,7′R)-10′-((2,4-difluorobenzyl)carbamoyl)-3,3′-dimethyl-1′,11′-dioxo-1′,4′,5′,11′-tetrahydro-3′H,4H,7′H-spiro[isoxazole-5,6′-[2,7]methanopyrido[1,2-a][1,4]diazonin]-12′-yl)oxy)methyl ((1R,2R)-2-(phosphonooxy)cyclohexyl) carbonate] | – | – | – | 5320 (≈ 7.21 mM) | 1.73 | 11400
CC1=NO[C@@]2(CC[C@H](C)N3C[C@H]2n2cc(C(=O)NCc4ccc(F)cc4F)c(=O)c(OCOC(=O)N(C)c4ncccc4COC(=O)[C@@H](N)C(C)C)c2C3=O)C1 [Compound 12, (2-((((((3′S,5S,7′R)-10′-((2,4-difluorobenzyl)carbamoyl)-3,3′-dimethyl-1′,11′-dioxo-1′,4′,5′,11′-tetrahydro-3′H,4H,7′H-spiro[isoxazole-5,6′-[2,7]methanopyrido[1,2-a][1,4]diazonin]-12′-yl)oxy)methoxy)carbonyl)(methyl)amino)pyridin-3-yl)methyl L-valinate] | – | – | – | 2700 (≈ 3.47 mM) | 4.33 | 14600
CC1=NO[C@@]2(CC[C@H](C)N3C[C@H]2n2cc(C(=O)NCc4ccc(F)cc4F)c(=O)c(OCc4ccccc4OP(=O)(O)O)c2C3=O)C1 [Compound 69, 2-((((3′S,5S,7′R)-10′-((2,4-difluorobenzyl)carbamoyl)-3,3′-dimethyl-1′,11′-dioxo-1′,4′,5′,11′-tetrahydro-3′H,4H,7′H-spiro[isoxazole-5,6′-[2,7]methanopyrido[1,2-a][1,4]diazonin]-12′-yl)oxy)methyl)phenyl dihydrogen phosphate] | 5140 | 1.78 | 14100 | – | – | –
CC1=NO[C@@]2(CC[C@H](C)N3C[C@H]2n2cc(C(=O)NCc4ccc(F)cc4F)c(=O)c(OCOC(=O)CC(C)(C)c4c(C)cc(C)cc4OP(=O)(O)O)c2C3=O)C1 [Compound 27] | 2260 (≈ 2.82 mM) | 2.75 | 16900 | – | – | –
CC1=NO[C@@]2(CC[C@H](C)N3C[C@H]2n2cc(C(=O)NCc4ccc(F)cc4F)c(=O)c(OCOC(=O)N(C)Cc4cc(C(=O)O)ccc4OP(=O)(O)O)c2C3=O)C1 [Compound 76, 3-(((((((3′S,5S,7′R)-10′-((2,4-difluorobenzyl)carbamoyl)-3,3′-dimethyl-1′,11′-dioxo-1′,4′,5′,11′-tetrahydro-3′H,4H,7′H-spiro[isoxazole-5,6′-[2,7]methanopyrido[1,2-a][1,4]diazonin]-12′-yl)oxy)methoxy)carbonyl)(methyl)amino)methyl)-4-(phosphonooxy)benzoic acid] | 4060 (≈ 5.05 mM) | 4.41 | 12900 | – | – | –
CCCCCCCCCCCCCC(=O)Oc1ccc(C(=O)Oc2c3n(cc(C(=O)NCc4ccc(F)cc4F)c2=O)[C@@H]2CN(C3=O)[C@@H](C)CC[C@]23CC(C)=NO3)cc1 [Compound 100, (3′S,5S,7′R)-10′-((2,4-difluorobenzyl)carbamoyl)-3,3′-dimethyl-1′,11′-dioxo-1′,4′,5′,11′-tetrahydro-3′H,4H,7′H-spiro[isoxazole-5,6′-[2,7]methanopyrido[1,2-a][1,4]diazonin]-12′-yl 4-(tetradecanoyloxy)benzoate] | – | – | – | 64.5 (≈ 0.079 mM) | 2.94 | 12800
CC1=NO[C@@]2(CC[C@H](C)N3C[C@H]2n2cc(C(=O)NCc4ccc(F)cc4F)c(=O)c(OCOC(=O)N(C)Cc4ccc(C(=O)O)cc4OP(=O)(O)O)c2C3=O)C1 [Compound 74, 4-(((((((3′S,5S,7′R)-10′-((2,4-difluorobenzyl)carbamoyl)-3,3′-dimethyl-1′,11′-dioxo-1′,4′,5′,11′-tetrahydro-3′H,4H,7′H-spiro[isoxazole-5,6′-[2,7]methanopyrido[1,2-a][1,4]diazonin]-12′-yl)oxy)methoxy)carbonyl)(methyl)amino)methyl)-3-(phosphonooxy)benzoic acid] | 4860 (≈ 6.05 mM) | 6.61 | 29400 | – | – | –
CCCCCCCCCCCCCC(=O)Nc1ccc(CC(=O)Oc2c3n(cc(C(=O)NCc4ccc(F)cc4F)c2=O)[C@@H]2CN(C3=O)[C@@H](C)CC[C@]23CC(C)=NO3)cc1 [Compound 94, (3′S,5S,7′R)-10′-((2,4-difluorobenzyl)carbamoyl)-3,3′-dimethyl-1′,11′-dioxo-1′,4′,5′,11′-tetrahydro-3′H,4H,7′H-spiro[isoxazole-5,6′-[2,7]methanopyrido[1,2-a][1,4]diazonin]-12′-yl 2-(4-tetradecanamidophenyl)acetate] | – | – | – | 19 (≈ 0.0229 mM) | 3.2 | ≥ 50000
